Data from publication PMC8150775, “Repositioning Azelnidipine as a Dual Inhibitor Targeting CD47/SIRPα and TIGIT/PVR Pathways for Cancer Immuno-Therapy” (Biomolecules, 2021).

Experiments:
human TIGIT/PVR = target: T1, human TIGIT/PVR (Homo sapiens, UniProt P15151); experiment: Blocking assay, human PVR protein binding to CHOK1-hTIGIT cells; conditions: concentration gradient; read-out: IC50, blocking human TIGIT/PVR (hPVR binding)
T1 construct: purchased ACRO Biosystem CD5-H82F6; host or cells: soluble protein purchased; TIGIT on CHOK1-hTIGIT cells (lenti-viral transfection)
Method: (§1) The abilities of small molecule inhibitors (SMIs) (purchased from TargetMol, Shanghai, China) to block the binding of SIRPα protein to CHOK1-CD47 cells or PVR protein to CHOK1-TIGIT cells were determined by flow cytometry, as previously reported. The SMIs at indicated concentrations were incubated with Fc-tagged SIRPα or PVR protein for 30 min at 4°C, followed by incubating with the indicated cells for another 30 min. Human SIRPα protein (SIA-H5251, ACRO Biosystem, Beijing, China), mouse SIRPα protein (SIA-M5258, ACRO Biosystem, Beijing, China), human PVR protein (CD5-H82F6, ACRO Biosystem, Beijing, China), and mouse PVR protein (50259-M03H, Sino Biological, Beijing, China) were used. PE-conjugated anti-human IgG antibody was used to detect the Fc protein bind to cells. Cells incubated with the Fc proteins and anti-human IgG antibody without the SMIs serve as the positive control. The mean fluorescent intensity (MFI) of each sample was detected and recorded by a flow cytometry. The blocking efficacy of the SMIs was calculated as the equation: (MFI of the positive control-MFI of the SMI)/MFI of the positive control × 100%.

tumor = system: tumor; set-up: method as in earlier work; conditions: cited from earlier work
human CD47/SIRPα = target: T2, human CD47/SIRPα (Homo sapiens, UniProt P78324); experiment: Blocking assay, human SIRPα protein binding to CHOK1-hCD47 cells; conditions: concentration gradient; read-out: IC50, blocking human CD47/SIRPα (hSirpα binding)
T2 construct: purchased ACRO Biosystem SIA-H5251; host or cells: soluble protein purchased; CD47 on CHOK1-hCD47 cells (lenti-viral transfection)
T2 sequence (P78324 31-370 limits assumed): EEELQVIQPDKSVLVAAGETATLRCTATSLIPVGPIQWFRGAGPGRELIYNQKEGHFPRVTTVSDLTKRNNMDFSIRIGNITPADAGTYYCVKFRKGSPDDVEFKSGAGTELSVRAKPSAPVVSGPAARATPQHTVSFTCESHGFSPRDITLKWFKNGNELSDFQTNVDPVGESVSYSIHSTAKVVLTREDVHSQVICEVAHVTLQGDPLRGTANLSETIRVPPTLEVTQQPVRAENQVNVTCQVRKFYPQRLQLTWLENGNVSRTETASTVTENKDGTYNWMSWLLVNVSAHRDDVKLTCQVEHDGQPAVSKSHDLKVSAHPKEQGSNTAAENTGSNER
Method: as §1

CT26 tumors = experiment: CD8+ T cell depletion CT26 tumor model; type: in vivo, BALB/c mice
Method: To establish the CD8^+ T cell depletion model, BALB/c mice were injected with 200 μg of CD8-depleting antibody (clone: YTS169.4) or matched Rat IgG isotype control (Sigma-Aldrich) the day before tumor inoculation and as well as weekly thereafter, resulting in a total of 3 injections per mouse. Depletion efficacy of CD8^+ T cells was verified by a flow cytometry with the blood sample of mice treated with indicated antibodies for 7 days.
Figure S2. The antitumor effects of Azelnidipine in CD8+ T cell depleted CT26 tumor model.
(A) CT26 tumor-bearing mice were i.p. administrated with 5 mg/kg of Azelnidipine daily as in the schematic diagram. (B) Blood samples of the mice treated with 200 μg anti-CD8 (YTS 169.4) or Rat IgG control for seven days were used to analyze the depletion efficacy by flow cytometry.
(C) Tumor growth curve of CT26 tumor-bearing mice treated with normal saline or Azelnidipine alone (n = 5 or 6). (D) Representative flow cytometry plots and summary data of the MDSCs in the tumor tissues of the Rat IgG treated groups (NS and Azelnidipine). (E) Representative flow cytometry histograms and summary data of the expression of SIRPα on M-MDSCs in the tumor tissues of the Rat IgG treated groups (NS and Azelnidipine). *, P<0.05.
(§2) (1 picture or pasted object on this page, not shown here)

CD47 = experiment: Flow cytometry of CD47 expression on CT26 cells in vitro; type: cell-based, mouse; conditions: 20 μM, 24 h
Method: Cells in good growth condition were harvested and used to detect the expression of CD47 and PVR. Antibodies anti-human CD47 APC, anti-human PVR PE, anti-mouse-CD47 APC, anti-mouse-PVR APC, and matched isotype controls were purchased from eBioscience, San Diego, CA, USA. The effects of azelnidipine on the expression of CD47 and PVR was determined by incubating CT26 cells with 20 μM of azelnidipine for 24 h, or directly analyzing the tumor cells from tumor tissues of CT26-bearing mice treated with or without azelnidipine.
Figure S3. The effects of Azelnidipine on the expression of CD47 and PVR on CT26 tumor cells. (A and B) CT26 cells were incubated with 20 μM Azelnidipine or vehicle control for 24h, and analyzed the expression of CD47 (A) and PVR (B). The gray shaded histogram represents the isotype, the red line represents the cells treated with vehicle control, and the blue line represents the cells treated with Azelnidipine. (C and D) Tumor cells (CD45-) derived from the tumor tissues of CT26 tumor-bearing mice treated with normal saline (NS) or 5 mg/kg Azelnidipine for twelve days, were analyzed for the expression of CD47 (C) and PVR (D). n.s. means not […]
as §2

[1] = 5 mg/kg i.p., Rat IgG treated groups

IC50 (human TIGIT/PVR): ~28 µM
IC50 (human CD47/SIRPα): ~36 µM
SMILES: CC1=C(C(=O)OC(C)C)C(c2cccc([N+](=O)[O-])c2)C(C(=O)OC2CN(C(c3ccccc3)c3ccccc3)C2)=C(N)N1 (centres unmarked) [Azelnidipine]
tumor growth in vivo (tumor): significantly inhibit the tumor growth in vivo
anti-tumor effect with CD8+ T cells depleted (CT26 tumors; 5 mg/kg i.p. daily, CD8-depleting antibody): abrogated
CT26 tumor growth, Rat IgG treated groups (CT26 tumors; 5 mg/kg i.p. daily, Rat IgG isotype control): significantly inhibit tumor growth
expression level of SIRPα on MDSCs in CT26 tumor tissues, NS vs azelnidipine (CT26 tumors; [1]): no significant difference
infiltration of MDSCs in CT26 tumor tissues, NS vs azelnidipine (CT26 tumors; [1]): no significant difference
expression of CD47 on CT26 cells (CD47): without suppressing
